Assay results from patent US10253007B2, “Taxanes compounds, preparation method therefor, and uses thereof” (Jiangsu Tasly Diyi Pharmaceutical Co., Ltd., priority 2013, dated 2019).
Where two headings read alike, the source gives them in different places.

Columns and labels:
[1] = tested on: breast cancer cell line MCF-7; assay: IC50 values on breast cancer cell line MCF-7; assay type: cell-based; conditions: Homo sapiens
Source text: From the activity evaluation data of the above-mentioned preliminary screen, it can be seen that the series of taxanes derivatives synthesized in the present invention have activity (although the activity of PCMI-43 is weakened). Afterward, most of the compounds are picked up from these derivatives to examine their IC50 values on breast cancer cell line MCF-7. Paclitaxel is used as the positive control drug. Experiments for each compound were independently repeated for three times and multiple holes were used in each experiment. The exposure time of drugs was 72 hours.

[2] = Caco-2 cell monolayer membrane transport assay; conditions: human; for Papp A→B: Caco-2, Papp A-B; for recovery: Caco-2, Recovery rate in mass
Source text: Caco-2 Cell Monolayer Membrane Transport Assay
Human-derived colorectal adenocarcinoma cell line Caco-2 cell monolayer model was used to study the bidirectional transport of the target compounds from the apical (AP) side to the basolateral (BL) side and from BL side to AP side. HPLC was used for quantitative analysis to calculate transport parameters, apparent permeability coefficient (Papp) and the efflux ratio.

[3] = tested on: NCI-H460 non-small cell lung cancer; assay: MTT assay, proliferation inhibition; assay type: cell-based; conditions: Homo sapiens, read-out: Proliferation inhibition rate
Source text: (§1) 1. Cytotoxicity Assay Using Human Tumor Cell Lines
(§2) Paclitaxel was used as the positive drug.

BGC-823 gastric cancer = assay: MTT assay, proliferation inhibition; assay type: cell-based; conditions: Homo sapiens, read-out: Proliferation inhibition rate
Source text: as §1, §2

MDA-MB-436 breast cancer = assay: MTT assay, proliferation inhibition; assay type: cell-based; conditions: Homo sapiens, read-out: Proliferation inhibition rate
Source text: as §1, §2

[4] = tested on: A549 non-small cell lung cancer; assay: MTT assay, proliferation inhibition; assay type: cell-based; conditions: Homo sapiens, read-out: Proliferation inhibition rate
Source text: as §1, §2

LNCaP prostate cancer = assay: MTT assay, proliferation inhibition; assay type: cell-based; conditions: Homo sapiens, read-out: Proliferation inhibition rate
Source text: as §1, §2

DU145 prostate cancer = assay: MTT assay, proliferation inhibition; assay type: cell-based; conditions: Homo sapiens, DU-145, read-out: Proliferation inhibition rate
Source text: as §1, §2

[5] = MTT assay, proliferation inhibition; assay type: cell-based; conditions: Homo sapiens, LN-18 gastric cancer, read-out: Proliferation inhibition rate
Source text: as §1, §2

HeLa cervical cancer = assay: MTT assay, proliferation inhibition; assay type: cell-based; conditions: Homo sapiens, read-out: Proliferation inhibition rate
Source text: as §1, §2

MCF-7 breast cancer = assay: MTT assay, proliferation inhibition; assay type: cell-based; conditions: Homo sapiens, MCF7, read-out: Proliferation inhibition rate
Source text: as §1, §2

HT29 colon cancer = assay: MTT assay, proliferation inhibition; assay type: cell-based; conditions: Homo sapiens, HT-29, read-out: Proliferation inhibition rate
Source text: as §1, §2

HCT 116 colon cancer = assay: MTT assay, proliferation inhibition; assay type: cell-based; conditions: Homo sapiens, read-out: Proliferation inhibition rate
Source text: as §1, §2

HL60 leukemia = assay: MTT assay, proliferation inhibition; assay type: cell-based; conditions: Homo sapiens, HL-60, read-out: Proliferation inhibition rate
Source text: as §1, §2

A375 melanoma = assay: MTT assay, proliferation inhibition; assay type: cell-based; conditions: Homo sapiens, A-375, read-out: Proliferation inhibition rate
Source text: as §1, §2

A2780 ovarian cancer = assay: MTT assay, proliferation inhibition; assay type: cell-based; conditions: Homo sapiens, read-out: Proliferation inhibition rate
Source text: as §1, §2

B16 melanoma = assay: MTT assay, proliferation inhibition; assay type: cell-based; conditions: read-out: Proliferation inhibition rate
Source text: as §1, §2

K562 leukemia = assay: MTT assay, proliferation inhibition; assay type: cell-based; conditions: Homo sapiens, read-out: Proliferation inhibition rate
Source text: as §1, §2

[6] = MCF7, MCF-7, exposure 72 hours, mean±SD of three independent experiments, read-out: MCF-7(IC50)
[7] = Mean, Caco-2, A-B, mean of two samples
[8] = Sample-01, Caco-2, A-B, Sample-01
[9] = Sample-02, Caco-2, A-B, Sample-02
[10] = MCF7, 72 h, read-out: MCF-7(IC50, nM)

Compound	Papp A→B [2, 8]	Papp A→B [2, 9]	recovery [2, 7]	recovery [2, 8]	recovery [2, 9]	inhibition at 1 µM [3]	inhibition at 1 µM (BGC-823 gastric cancer)	inhibition at 1 µM (MDA-MB-436 breast cancer)	inhibition at 1 µM [4]	inhibition at 1 µM (LNCaP prostate cancer)	inhibition at 1 µM (DU145 prostate cancer)	inhibition at 1 µM [5]	inhibition at 1 µM (HeLa cervical cancer)	inhibition at 1 µM (MCF-7 breast cancer)	inhibition at 1 µM (HT29 colon cancer)	inhibition at 1 µM (HCT 116 colon cancer)	inhibition at 1 µM (HL60 leukemia)	inhibition at 1 µM (A375 melanoma)	inhibition at 1 µM (A2780 ovarian cancer)	inhibition at 1 µM (B16 melanoma)	further results
CO[C@H]1C(=O)[C@]2(C)CC[C@H]3OC[C@@]3(OC(C)=O)[C@H]2[C@H](OC(=O)c2ccccc2)[C@]2(O)C[C@H](OC(=O)[C@H](O)[C@@H](NC(=O)OC(C)(C)C)c3ccccc3)C(C)=C1C2(C)C [PCMI-41]	4.27 ×10⁻⁶ cm/s	5.79 ×10⁻⁶ cm/s	101%	97%	105%	85.7%	93.1%	80.1%	77%	82.5%	87.6%	94.6%	101%	95.5%	88.3%	65%	97.7%	91.6%	95.8%	81.1%	IC50 [1, 6]: 3.33 ± 0.11 nM; Papp A→B [2, 7]: 5.03 ×10⁻⁶ cm/s; inhibition at 1 µM (K562 leukemia): 94.3%
CO[C@H]1C(=O)[C@]2(C)[C@@H](OC(=O)N(C)C)C[C@H]3OC[C@@]3(OC(C)=O)[C@H]2[C@H](OC(=O)c2ccccc2)[C@]2(O)C[C@H](OC(=O)[C@H](O)[C@@H](NC(=O)c3ccccc3)c3ccccc3)C(C)=C1C2(C)C [PCMI-32]	3.16 ×10⁻⁶ cm/s	3.38 ×10⁻⁶ cm/s	81.9%	82.1%	81.6%	86.6%	95.1%	74.4%	74.5%	83.4%	87.5%	92.2%	103%	102%	89.8%	57.7%	97.8%	90.4%	95.8%	77.8%	IC50 [1, 10]: 64.67 ± 0.18 nM; inhibition at 1 µM (K562 leukemia): 91%
CO[C@H]1C(=O)[C@]2(C)[C@@H](OC(=O)N(C)C)C[C@H]3OC[C@@]3(OC(C)=O)[C@H]2[C@H](OC(=O)c2ccccc2)[C@]2(O)C[C@H](OC(=O)[C@H](O)[C@@H](NC(=O)N(C)C)c3ccccc3)C(C)=C1C2(C)C [PCMI-35]	3.21 ×10⁻⁶ cm/s	2.87 ×10⁻⁶ cm/s	91.3%	95%	87.6%	86.9%	95.8%	80.2%	76.2%	85.3%	89.8%	93.5%	99.9%	92.5%	87.3%	65.5%	97.5%	95.3%	94.2%	80.3%	IC50 [1, 6]: 4.28 ± 0.08 nM; Papp A→B [2, 7]: 3.04 ×10⁻⁶ cm/s; inhibition at 1 µM (K562 leukemia): 92.7%
CCSC(=O)O[C@H]1C[C@H]2OC[C@@]2(OC(C)=O)[C@H]2[C@H](OC(=O)c3ccccc3)[C@]3(O)C[C@H](OC(=O)[C@H](O)[C@@H](NC(=O)N(C)C)c4ccccc4)C(C)=C([C@@H](OC)C(=O)[C@]12C)C3(C)C [PCMI-40]	3.78 ×10⁻⁶ cm/s	4.05 ×10⁻⁶ cm/s	74.5%	78.2%	70.7%	87.3%	93.3%	83.6%	80.2%	87.2%	90%	93.9%	99.6%	94.7%	87.2%	67.3%	96.9%	95.2%	94.2%	83.7%	IC50 [1, 10]: 5.49 ± 0.14 nM; Papp B→A ([2]; Caco-2): 37.2 ×10⁻⁶ cm/s; efflux ratio ([2]; Caco-2): 5.36; Papp A→B ([2]; Caco-2 cell line (21 days), bidirectional transport, Table 5): 6.92 ×10⁻⁶ cm/s; Papp A→B [2, 7]: 3.92 ×10⁻⁶ cm/s; inhibition at 1 µM (K562 leukemia): 92.7%
CO[C@H]1C(=O)[C@]2(C)[C@@H](OC(=O)N(C)C)C[C@H]3OC[C@@]3(OC(C)=O)[C@H]2[C@H](OC(=O)c2ccccc2)[C@]2(O)C[C@H](OC(=O)[C@H](O)[C@@H](NC(=O)OC(C)(C)C)c3ccccn3)C(C)=C1C2(C)C [PCMI-33]	4.27 ×10⁻⁶ cm/s	4.54 ×10⁻⁶ cm/s	94.9%	95.8%	94%	87.8%	94.1%	76.2%	74.1%	83.6%	86.3%	93.2%	103%	83.5%	89.1%	56%	97.8%	90.3%	94.7%	81.8%	IC50 [1, 10]: 46.63 ± 0.14 nM; inhibition at 1 µM (K562 leukemia): 91.1%
COC(=O)O[C@H]1C[C@H]2OC[C@@]2(OC(C)=O)[C@H]2[C@H](OC(=O)c3ccccc3)[C@]3(O)C[C@H](OC(=O)[C@H](O)[C@@H](NC(=O)OC(C)(C)C)c4ccccc4)C(C)=C([C@@H](OC)C(=O)[C@]12C)C3(C)C [PCMI-36]	6.66 ×10⁻⁶ cm/s	7.29 ×10⁻⁶ cm/s	88.5%	95.5%	81.4%	90.3%	94.6%	77.5%	78%	83.8%	88.3%	95.9%	102%	107%	89.7%	67.2%	97.8%	94%	96.9%	81.8%	IC50 [1, 10]: 4.97 ± 0.06 nM; inhibition at 1 µM (K562 leukemia): 94.5%
